What was measured:
[1] = target: RT in group M sera (HIV-1 M:B_HXB2R, UniProt P04585); conditions: 10 group M-infected persons; unprocessed 2 μl serum samples
Method: (§1) Plasma samples from 55 HIV-1 infected persons, ten seroconversion panels and 100 uninfected controls were studied. Two micoliter volumes of unprocessed plasma were tested in duplicate by the Amp-RT protocol as described above. The viral load was determined from a standard curve generated by known numbers of recombinant HIV-1 RT molecules and was expressed as equivalents of recombinant RT (rRT) molecules/ml. For comparison, RNA virus loads were also determined by the NASBA commercial assay (Organon).
(§2) To measure the sensitivity of group M and group O viruses to nevirapine (Boehringer Mannheim), the Amp-RT assay as described herein was used to measure the enzymatic activity of RT of these viruses in the presence or absence of the drug. Ten microliters of culture supernatants were added to 40 μl of RT buffer containing 10 ng of RNA template, 10 units of Rnasin (Promega, Wis.), 0.06% NP-40, 100 ng of the antisense primer EMCR2 (SEQ ID NO:2), 0.8 mM EGTA, 2 mM dithiothreitol, 50 mM Tris-HCl, 10 mM MgCl2 and 200 μM of each dNTP with or without 100 μM of nevirapine. […] For quantitative detection, blots were exposed for 3-6 hours and their radioactivities were read and measured by a Phosphor Imager (Model # 400E, Molecular Dynamics, Inc., CA). […]
(§3) Applicability to serum screening was evaluated in 10 group O-infected and 10 group M-infected persons.

[2] = target: T1, RT of group O reference isolate MVP5180 (Human immunodeficiency virus type 1 group O, UniProt Q79666); experiment: Amp-RT assay of RT activity of HIV-1 group O isolate with or without nevirapine; format: biochemical; conditions: nevirapine at 100 μM, culture supernatant
T1 construct: measure the enzymatic activity of RT of these viruses
Method: (§4) To measure the sensitivity of group M and group O viruses to nevirapine (Boehringer Mannheim), the Amp-RT assay as described herein was used to measure the enzymatic activity of RT of these viruses in the presence or absence of the drug. Ten microliters of culture supernatants were added to 40 μl of RT buffer containing 10 ng of RNA template, 10 units of Rnasin (Promega, Wis.), 0.06% NP-40, 100 ng of the antisense primer EMCR2 (SEQ ID NO:2), 0.8 mM EGTA, 2 mM dithiothreitol, 50 mM Tris-HCl, 10 mM MgCl2 and 200 μM of each dNTP with or without 100 μM of nevirapine. The reaction was incubated at 37° C. for one hour and heated at 95° C. for ten minutes. The products of the RT reaction were PCR amplified for 35 cycles at 95° C. for one minute, 55° C. for one minute and 72° C. for one minute after the addition of 50 μl of PCR buffer containing 2.5 units of Taq polymerase, 100 ng of sense primer EMCF1': 5'[…]3' (SEQ ID NO:10). Twenty microliters of the reaction product was electrophoresed in 1.8% agarose gels and Southern blot hybridized to ^32 P-end labeled internal probe EMCP1 (SEQ ID NO:3). For qualitative detection, blots were exposed on autoradiographic film for 12-16 hours. For quantitative detection, blots were exposed for 3-6 hours and their radioactivities were read and measured by a Phosphor Imager (Model # 400E, Molecular Dynamics, Inc., CA). […]

[3] = target: RT of group M viruses (HIV-1 M:B_HXB2R, UniProt P04585); conditions: nevirapine at 100 μM; 21 group M reference isolates of A through F subtypes; culture supernatants
Method: as §4

[4] = target: T2, RT in group O sera (HIV-1 O_MVP5180, UniProt Q79666); experiment: Direct Amp-RT assay of sera from group O-infected persons with or without nevirapine; format: biochemical, HIV-1 group O; conditions: 10 group O-infected persons; unprocessed 2 μl serum samples
T2 construct: Amp-RT with EMCV RNA template
Method: as §1, §2, §3

## Cc1ccnc2c1NC(=O)c1cccnc1N2C1CC1 [nevirapine]
[1]
  Amp-RT result of group M sera with nevirapine: positive only in the absence of nevirapine
[2]
  Sensitivity of group O reference isolate to nevirapine (Amp-RT): resistant
[3]
  Effect on Amp-RT activity of group M reference isolates: inhibit
[4]
  Amp-RT result of group O sera with nevirapine: Amp-RT positive in the presence and absence of nevirapine

Reference: US5849494A, “Methods for sensitive detection of reverse transcriptase” (priority 1996, dated 1998)
